Data from US9783537B2, “3-(4-ethylnylphenyl) pyridopyrimidinone compounds and process for preparation thereof useful as potential anticancer agents” (Council of Scientific & Industrial Research, priority 2013, dated 2017).
Like-named read-outs stand apart in the source and are kept apart here.

Experiments:
[1] = system: SNB-75; assay: SRB 48 h growth assay, CNS SNB-75; assay type: cell-based, human; conditions: SNB-75, CNS
[2] = system: UACC-62; assay: SRB 48 h growth assay, Melanoma UACC-62; assay type: cell-based, human; conditions: UACC-62, Melanoma
[3] = system: SK-MEL-5; assay: SRB 48 h growth assay, Melanoma SK-MEL-5; assay type: cell-based, human; conditions: SK-MEL-5, Melanoma
[4] = system: K-562; assay: SRB 48 h growth assay, Leukemia K-562; assay type: cell-based, human
[5] = system: OVCAR-4; assay: SRB 48 h growth assay, Ovarian OVCAR-4; assay type: cell-based, human; conditions: OVCAR-4, Ovarian
[6] = system: 786-0; assay: SRB 48 h growth assay, Renal 786-0; assay type: cell-based, human; conditions: 786-0, Renal
[7] = in vitro anticancer activity, melanoma panel; assay type: cell-based; conditions: Homo sapiens; nine melanoma cell lines, exposure at least 48 h; read-out: GI50, range over panel
[8] = system: NCI/ADR-RES; assay: SRB 48 h growth assay, Ovarian NCI/ADR-RES; assay type: cell-based, human
[9] = system: seven ovarian cancer cell lines (IGROV1, OVCAR-3, OVCAR-4, OVCAR-5, OVCAR-8, NCI/ADR-RES and SK-OV-3); assay: in vitro anticancer activity, ovarian panel; assay type: cell-based; conditions: Homo sapiens, exposure at least 48 h, read-out: GI50, range over panel
[10] = system: A549/ATCC; assay: SRB 48 h growth assay, Non-small Cell Lung A549/ATCC; assay type: cell-based, human
[11] = system: OVCAR-3; assay: SRB 48 h growth assay, Ovarian OVCAR-3; assay type: cell-based, human; conditions: OVCAR-3, Ovarian
[12] = system: SK-OV-3; assay: SRB 48 h growth assay, Ovarian SK-OV-3; assay type: cell-based, human; conditions: SK-OV-3, Ovarian
[13] = system: NCI-H522; assay: SRB 48 h growth assay, Non-small Cell Lung NCI-H522; assay type: cell-based, human
[14] = system: CCRF-CEM; assay: SRB 48 h growth assay, Leukemia CCRF-CEM; assay type: cell-based, human
[15] = system: TK-10; assay: SRB 48 h growth assay, Renal TK-10; assay type: cell-based, human; conditions: TK-10, Renal
[16] = system: HCT-116; assay: SRB 48 h growth assay, Colon HCT-116; assay type: cell-based, human; conditions: HCT-116, Colon
[17] = system: M14; assay: SRB 48 h growth assay, Melanoma M14; assay type: cell-based, human
[18] = system: OVCAR-8; assay: SRB 48 h growth assay, Ovarian OVCAR-8; assay type: cell-based, human; conditions: OVCAR-8, Ovarian
[19] = system: seven colon cancer cell line (COLO 205, HCC-2998, HCT-116, HCT-15, HT29, KM12 and SW-620); assay: in vitro anticancer activity, colon panel; assay type: cell-based; conditions: Homo sapiens; seven colon cancer cell lines, exposure at least 48 h; read-out: GI50, range over panel
[20] = system: HOP-92; assay: SRB 48 h growth assay, Non-small Cell Lung HOP-92; assay type: cell-based, human; conditions: HOP-92, Non-small Cell Lung
[21] = system: UACC-257; assay: SRB 48 h growth assay, Melanoma UACC-257; assay type: cell-based, human; conditions: UACC-257, Melanoma
[22] = system: PC-3; assay: SRB 48 h growth assay, Prostate PC-3; assay type: cell-based, human; conditions: PC-3, Prostate
[23] = system: MDA-MB-231/ATCC; assay: SRB 48 h growth assay, Breast MDA-MB-231/ATCC; assay type: cell-based, human
[24] = system: six CNS cancer cell line (SF-268, SF-295, SF-539, SNB-19, SNB-75 and U251); assay: in vitro anticancer activity, CNS panel; assay type: cell-based; conditions: Homo sapiens; six CNS cancer cell lines, exposure at least 48 h; read-out: GI50, range over panel
[25] = system: NCI-H226; assay: SRB 48 h growth assay, Non-small Cell Lung NCI-H226; assay type: cell-based, human; conditions: for GI50: Homo sapiens
[26] = system: RPMI-8226; assay: SRB 48 h growth assay, Leukemia RPMI-8226; assay type: cell-based, human; conditions: RPMI-8226, Leukemia
[27] = Homo sapiens, read-out: Growth Inhibition GI50
[28] = Homo sapiens, read-out: Log10 GI50 (converted)
[29] = Homo sapiens, read-out: Log10 LC50 (converted)

C#Cc1ccc(-n2c(/C=C/c3cc(OC)c(OC)c(OC)c3)nc3ncccc3c2=O)cc1 [4q, (E)-3-(4-Ethynylphenyl)-2-(3,4,5-trimethoxystyryl)pyrido[2,3-d]pyrimidin-4(3H)-one]
GI50 [1, 27]: 3.88 µM | GI50 [1, 28]: 3.89 µM | CC50 [1, 29]: > 100 µM | Log10 TGI50 [1]: >−4.00 | GI50 [2, 27]: 6.9 µM | GI50 [2, 28]: 6.92 µM | CC50 [2, 29]: > 100 µM | Log10 TGI50 [2]: >−4.00 | GI50 [3, 27]: 1.78 µM | GI50 [3, 28]: 1.78 µM | CC50 [3, 29]: 18.2 µM | Log10 TGI50 [3]: −5.36 | GI50 ([4]; Homo sapiens, K562, K-562, Leukemia, read-out: Growth Inhibition GI50): 3.83 µM | GI50 ([4]; Homo sapiens, K562, K-562, Leukemia, read-out: Log10 GI50 (converted)): 3.8 µM | CC50 ([4]; Homo sapiens, K562, K-562, Leukemia, read-out: Log10 LC50 (converted)): > 100 µM | Log10 TGI50 ([4]; K-562, Leukemia): >−4.00 | GI50 [5, 27]: 12 µM | GI50 [5, 28]: 12 µM | CC50 [5, 29]: > 100 µM | Log10 TGI50 [5]: −4.04 | Log10 TGI50 [6]: >−4.00 | GI50 [6, 27]: 5.31 µM | GI50 [6, 28]: 5.25 µM | CC50 [6, 29]: > 100 µM | GI50 [7]: 1.49 to 2.27 µM | Log10 TGI50 [8]: −4.46 | GI50 [8, 27]: 3.61 µM | GI50 [8, 28]: 3.63 µM | CC50 [8, 29]: > 100 µM | GI50 [9]: 1.67 to 3.61 µM | Log10 TGI50 [10]: >−4.00 | GI50 [10, 27]: 5.65 µM | GI50 [10, 28]: 5.62 µM | CC50 [10, 29]: > 100 µM | GI50 [11, 27]: 2.33 µM | GI50 [11, 28]: 2.34 µM | CC50 [11, 29]: > 100 µM | Log10 TGI50 [11]: −5.19 | GI50 [12, 27]: 5.33 µM | GI50 [12, 28]: 5.37 µM | CC50 [12, 29]: > 100 µM | Log10 TGI50 [12]: −4.11 | Log10 TGI50 [13]: −5.20 | GI50 [13, 27]: 2.33 µM | GI50 [13, 28]: 2.34 µM | CC50 [13, 29]: 66.1 µM | Log10 TGI50 [14]: >−4.00 | CC50 ([14]; Homo sapiens, CCKF-CEM, read-out: Log10 LC50 (converted)): > 100 µM | GI50 [14, 27]: 4.9 µM | GI50 [14, 28]: 4.9 µM | GI50 [15, 27]: 17.3 µM | GI50 [15, 28]: 17.4 µM | CC50 [15, 29]: > 100 µM | Log10 TGI50 [15]: −4.20 | Log10 TGI50 [16]: >−4.00 | GI50 [16, 27]: 5.17 µM | GI50 [16, 28]: 5.13 µM | CC50 [16, 29]: > 100 µM | Log10 TGI50 [17]: ->−4.00 | GI50 [17, 27]: 4.93 µM | GI50 [17, 28]: 4.9 µM | CC50 [17, 29]: > 100 µM | GI50 [18, 27]: 9.67 µM | GI50 [18, 28]: 9.77 µM | CC50 [18, 29]: > 100 µM | Log10 TGI50 [18]: >−4.00 | GI50 [19]: 1.64 to 2.23 µM | Log10 TGI50 [20]: −5.11 | GI50 [20, 27]: 2.31 µM | GI50 [20, 28]: 2.29 µM | CC50 [20, 29]: > 100 µM | GI50 [21, 27]: 9.74 µM | GI50 [21, 28]: 9.77 µM | CC50 [21, 29]: > 100 µM | Log10 TGI50 [21]: >−4.00 | GI50 [22, 27]: 3.96 µM | GI50 [22, 28]: 3.98 µM | CC50 [22, 29]: > 100 µM | Log10 TGI50 [22]: >−4.00 | Log10 TGI50 [23]: >−4.00 | GI50 [23, 27]: 5.53 µM | GI50 [23, 28]: 5.5 µM | CC50 [23, 29]: > 100 µM | GI50 [24]: 1.67 to 2.27 µM | Log10 TGI50 [25]: >−4.00 | GI50 ([25]; read-out: Growth Inhibition GI50): 12.9 µM | GI50 ([25]; read-out: Log10 GI50 (converted)): 12.9 µM | GI50 [26, 27]: 3.6 µM | GI50 [26, 28]: 3.63 µM | CC50 [26, 29]: > 100 µM | Log10 TGI50 [26]: >−4.00
